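Following 48 hours of exposure in 96-well plates, responses at five concentrations were used to interpolate endpoints linearly. At the GI50, growth is halved. TGI is the concentration that stops growth completely.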
Legend:
Assay in all cases: inhibition of tumour cell growth, NCI panel, 48 h
[1] = tested on: NCI-H23 lung
[2] = tested on: HCT-15 colon
[3] = tested on: HS 578T breast
[4] = tested on: NCI-H226 lung
[5] = tested on: MOLT-4 leukemia
[6] = tested on: 786-0 renal
[7] = tested on: KM12 colon
[8] = tested on: OVCAR-8 ovarian
[9] = tested on: SK-OV-3 ovarian
[10] = tested on: T-47D breast

Structure (SMILES): CN(C1=NS(=O)(=O)N=C(N(C)c2ccccc2)O1)c1ccccc1
- TGI [1]: 28.3 µM
- TGI [2]: 39.2 µM
- TGI [3]: 69.9 µM
- TGI [4]: 33.1 µM
- TGI [5]: > 100 µM
- TGI [6]: 72.7 µM
- TGI [7]: 34.4 µM
- TGI [8]: 33.3 µM
- TGI [9]: 78.8 µM
- TGI [10]: 45.5 µM

Structure (SMILES): O=C1C(Cl)=C(Nc2cccc(O)c2)C(=O)N1c1cccc(Cl)c1
- GI50 [1]: 37.7 µM
- TGI [1]: > 100 µM
- GI50 [2]: 39.1 µM
- TGI [2]: > 100 µM
- GI50 [3]: 29.3 µM
- TGI [3]: > 100 µM
- GI50 [4]: 26 µM
- TGI [4]: 76.9 µM
- GI50 [5]: 23 µM
- TGI [5]: 71.4 µM
- GI50 [6]: 57.8 µM
- TGI [6]: > 100 µM
- GI50 [7]: 68.2 µM
- TGI [7]: > 100 µM
- GI50 [8]: 27.2 µM
- TGI [8]: > 100 µM
- GI50 [9]: 56.5 µM
- TGI [9]: > 100 µM
- GI50 [10]: 67.2 µM
- TGI [10]: > 100 µM

Structure (SMILES): CC(C)(C)N1CC(OC(N)=O)C1
- GI50 [1]: > 100 µM
- TGI [1]: > 100 µM
- GI50 [2]: > 100 µM
- TGI [2]: > 100 µM
- GI50 [3]: > 100 µM
- TGI [3]: > 100 µM
- GI50 [4]: > 100 µM
- TGI [4]: > 100 µM
- GI50 [5]: > 100 µM
- TGI [5]: > 100 µM
- GI50 [6]: > 100 µM
- TGI [6]: > 100 µM
- GI50 [7]: > 100 µM
- TGI [7]: > 100 µM
- GI50 [8]: > 100 µM
- TGI [8]: > 100 µM
- GI50 [9]: > 100 µM
- TGI [9]: > 100 µM
- GI50 [10]: > 100 µM
- TGI [10]: > 100 µM

From PubChem BioAssay (NCI)
